Each structure is given as a SMILES string.

In the experiment the target is T1, protein tyrosine phosphatase (PTP) 1B (Homo sapiens, UniProt P18031).
T1 sequence (P18031 1-435): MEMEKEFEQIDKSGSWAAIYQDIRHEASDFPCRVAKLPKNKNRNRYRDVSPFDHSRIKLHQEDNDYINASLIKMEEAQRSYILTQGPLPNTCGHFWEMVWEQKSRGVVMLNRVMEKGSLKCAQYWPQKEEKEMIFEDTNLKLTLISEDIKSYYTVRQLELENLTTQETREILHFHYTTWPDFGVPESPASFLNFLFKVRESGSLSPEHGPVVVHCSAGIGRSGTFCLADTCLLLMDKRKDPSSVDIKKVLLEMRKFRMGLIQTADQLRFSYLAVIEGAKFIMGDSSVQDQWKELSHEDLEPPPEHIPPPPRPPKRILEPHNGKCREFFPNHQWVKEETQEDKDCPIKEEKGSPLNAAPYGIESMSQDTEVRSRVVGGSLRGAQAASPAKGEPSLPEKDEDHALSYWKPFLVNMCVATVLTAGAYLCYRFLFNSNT
The experiment can be described thus: in vitro PTP1B inhibitor screening assay. Format: biochemical.

As for `C[C@H]1Oc2cc3c(-c4c(O)cc(O)c5c(O)c6c(cc45)O[C@H](C)[C@@H](C)C6=O)c(O)cc(O)c3c(O)c2C(=O)[C@@H]1C` [4548-G05, [9,9′-Bi-4H-naphtho[2,3-b]pyran]-4,4′-dione,2,2′,3,3′-tetrahydro-5,5′,6,6′,8,8′-hexahydroxy-2,2′,3,3′-tetramethyl], the IC50 amounted to 75.3 ± 2.52 µM.

One may read the IC50 as the concentration needed to halve the response being measured. A higher IC50 goes with weaker potency.

The values above are taken from paper PMC3964510 (Diabetes, 2014).
